From US7608724B2, “Antibacterial and/or antiprotozoal nitromidazole derivative compounds with urease inhibitor activity, process for preparing these compounds and use in pharmaceutical compositions and medicines” (EMS S.A., priority 2003, dated 2009)

Assays:
[1] = test system: Salmonella typhimurium T-100 strain; experiment: Ames Test without metabolic activation (−S9), mutagenic activity; format: cell-based; conditions: for revertant colonies per plate (mean ± standard deviation): −S9, T-100 strain; for mutagenic rate (RM): −S9, positive response ≧2
Method: The mutagenic activity of the compounds were evaluated by The Ames Test without metabolic activation (−S9), with Salmonella typhimurium T-100 strain. The test is based in the fact that indicating S. typhimurium strains are sensitive to substances capable of inducing different kinds of mutation. In the presence of mutagenic agents, these strains revert the character of histidine auxotrophic synthesis, and start forming colonies in a medium were this aminoacid is absent. The mutagenic activity of a compound as its concentration function is established by counting the number of colonies per plate.
The final data obtained were analyzed by using Salanal software (Salmonella Assay Analysis) Version 1.0 from Research Triangle Institute, RTP, North Carolina, USA. This software allows to evaluate the dose-answer response by performing an analysis of variance (ANOVA f-test) between the mean revertants number in the different tested concentrations (doses) and the negative control, followed by a linear regression. […] The slope of the linear part of response-dosage curve is also furnished by the program and it corresponds to the number of revertants induced per mg of the sample analyzed.
MR is calculated by the following equation: […]

[2] = test system: urease; experiment: Urease inhibiting test (phenol red, formation of ammonium from urea); format: biochemical; conditions: molar concentration of 30 nM
Method: Urease inhibition is evaluated by the assay based on RUÍZ-HERRERA, J; GONZALEZ, L. A (1969) and has the objective to verify in the visible spectra, by using phenol red as indicator, the formation of ammonium from urea according to the following reaction: […]

SMILES | revertant colonies per plate (mean ± standard deviation) ([1]; 2.9 (mM)/plate) | mutagenic rate (RM) ([1]; 2.9 (mM)/plate) | revertant colonies per plate (mean ± standard deviation) ([1]; 14.6 (mM)/plate) | mutagenic rate (RM) ([1]; 14.6 (mM)/plate) | revertant colonies per plate (mean ± standard deviation) ([1]; 29.2 (mM)/plate) | mutagenic rate (RM) ([1]; 29.2 (mM)/plate) | revertant colonies per plate (mean ± standard deviation) ([1]; 58.4 (mM)/plate) | mutagenic rate (RM) ([1]; 58.4 (mM)/plate) | revertant colonies per plate (mean ± standard deviation) ([1]; 116.9 (mM)/plate) | mutagenic rate (RM) ([1]; 116.9 (mM)/plate) | mutagenic activity compared with metronidazole parent drug or its monosuccinate ester (example 1) ([1]; FIG. 1, from table 1) | Urease inhibiting percentage ([2]; 1 minute) | Urease inhibiting percentage ([2]; 2 minutes) | Urease inhibiting percentage ([2]; 3 minutes)
Cc1ncc([N+](=O)[O-])n1CCOC(=O)CCC(=O)NC(=S)NC(=O)CCC(=O)OCCn1c([N+](=O)[O-])cnc1C [Example 5, Bis[2-(2-methyl-5-nitro-1H-imidazol-1-yl)ethyl]4,4′[(thioxomethylene)diimine]bis(4-oxobutanoate)] | 162 ± 29 colonies per plate | RM = 1.3 | 316 ± 19 colonies per plate | RM = 2.5 | 606 ± 94 colonies per plate | RM = 4.8 | 1095 ± 100 colonies per plate | RM = 8.7 | 1582 ± 79 colonies per plate | RM = 12.5 | very inferior | 74% | 67% | 65%
Cc1ncc([N+](=O)[O-])n1CCO [Metronidazole, 2-(2-methyl-5-nitro-1H-imidazol-1-yl)ethanol] |  |  |  |  |  |  |  |  |  |  |  | 6% | 7% | 7%
NC(N)=S [Tiourea, thiourea] |  |  |  |  |  |  |  |  |  |  |  | 23% | 16% | 17%
